Reference: the NIST ThermoML archive (doi:10.1016/j.jct.2018.02.017)

What was measured:
[1] = 100 kPa, Liquid, Vibrating tube method
[2] = xn = mol fraction of the nth substance listed; conditions: 100 kPa, Liquid, Vibrating tube method
[3] = mn = molality of the nth substance listed, in mol/kg; conditions: 298.15 K, 100 kPa, Liquid, Falling or rolling sphere viscometry
[4] = excess molar enthalpy (molar enthalpy of mixing); xn = mol fraction of the nth substance listed; conditions: 100 kPa, Liquid, Flow calorimetry

CCCCn1cc[n+](C)c1.N#CN=C=[N-] [1-butyl-3-methylimidazolium dicyanamide]
[1]
Conditions	mass density [kg/m3]
288.15 K	1065.64
293.15 K	1062.04
298.15 K	1059.22
303.15 K	1056.04
308.15 K	1052.88
313.15 K	1049.74
318.15 K	1046.63
323.15 K	1043.5
328.15 K	1040.4
333.15 K	1037.38

CCCCn1cc[n+](C)c1.N#CN=C=[N-] [1-butyl-3-methylimidazolium dicyanamide] + O
Conditions	excess molar enthalpy, [4] [kJ/mol]	mass density, [2] [kg/m3]
288.15 K, x1 = 0.000389	0.00023	999.45
288.15 K, x1 = 0.000777	0.00058	999.8
288.15 K, x1 = 0.001165	0.00097	1000.14
288.15 K, x1 = 0.001552	0.0014	1000.47
288.15 K, x1 = 0.00194	0.00183	1000.79
288.15 K, x1 = 0.002327	0.00229	1001.11
298.15 K, x1 = 0.000388	0.00083	997.35
298.15 K, x1 = 0.000777	0.00179	997.65
298.15 K, x1 = 0.001165	0.00278	997.93
298.15 K, x1 = 0.001552	0.00378	998.21
298.15 K, x1 = 0.001939	0.0048	998.48
298.15 K, x1 = 0.002327	0.00586	998.75
308.15 K, x1 = 0.000389	0.00147	994.29
308.15 K, x1 = 0.000777	0.00309	994.54
308.15 K, x1 = 0.001165	0.00473	994.79
308.15 K, x1 = 0.001552	0.00635	995.02
308.15 K, x1 = 0.00194	0.00797	995.25
308.15 K, x1 = 0.002327	0.00962	995.48
318.15 K, x1 = 0.000388	0.00214	990.43
318.15 K, x1 = 0.000777	0.00443	990.65
318.15 K, x1 = 0.001165	0.00672	990.85
318.15 K, x1 = 0.001552	0.00898	991.06
318.15 K, x1 = 0.00194	0.0113	991.25
318.15 K, x1 = 0.002328	0.0135	991.45

[3]
Conditions	viscosity [mPa·s]
m1 = 0.01061	0.8936
m1 = 0.01522	0.895
m1 = 0.03084	0.901
m1 = 0.05091	0.9086
m1 = 0.06874	0.9157
m1 = 0.08186	0.9219
